From PMC7158045 (BMC Plant Biology, 2020)
Structures can show the parent of a compound that is named as a salt.

What was measured:
Assay in all cases: biochemical
[1] = molecular target: T1, ZmDRIK1 (DROUGHT RESPONSIVE INACTIVE KINASE 1), kinase domain (Zea mays, UniProt C0P4K9); settings: read-out: dTm B, sheet ZmDRIK1-R187-S514;; DSF, Boltzmann fit, 0.1% DMSO
T1 construct: gene ZEAMMB73_Zm00001d028770; ZmDRIK1-KD R187-S514 (kinase domain)
T1 sequence (C0P4K9 187-514): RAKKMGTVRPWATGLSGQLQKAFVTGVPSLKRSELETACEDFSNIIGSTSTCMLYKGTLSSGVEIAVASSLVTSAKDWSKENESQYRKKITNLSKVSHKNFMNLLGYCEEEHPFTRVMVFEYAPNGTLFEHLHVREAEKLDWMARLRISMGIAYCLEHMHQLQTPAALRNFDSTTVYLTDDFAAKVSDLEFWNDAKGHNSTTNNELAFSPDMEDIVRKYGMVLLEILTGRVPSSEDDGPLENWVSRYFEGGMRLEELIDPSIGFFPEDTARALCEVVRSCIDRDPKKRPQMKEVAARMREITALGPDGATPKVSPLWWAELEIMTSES

[2] = molecular target: T2, ZmDRIK1-K217-P492 (Zea mays, UniProt C0P4K9); settings: read-out: dTm B, sheet ZmDRIK1-K217-P492;; DSF, Boltzmann fit, 0.1% DMSO
T2 construct: kinase domain, K217-P492
T2 sequence (C0P4K9 1-514): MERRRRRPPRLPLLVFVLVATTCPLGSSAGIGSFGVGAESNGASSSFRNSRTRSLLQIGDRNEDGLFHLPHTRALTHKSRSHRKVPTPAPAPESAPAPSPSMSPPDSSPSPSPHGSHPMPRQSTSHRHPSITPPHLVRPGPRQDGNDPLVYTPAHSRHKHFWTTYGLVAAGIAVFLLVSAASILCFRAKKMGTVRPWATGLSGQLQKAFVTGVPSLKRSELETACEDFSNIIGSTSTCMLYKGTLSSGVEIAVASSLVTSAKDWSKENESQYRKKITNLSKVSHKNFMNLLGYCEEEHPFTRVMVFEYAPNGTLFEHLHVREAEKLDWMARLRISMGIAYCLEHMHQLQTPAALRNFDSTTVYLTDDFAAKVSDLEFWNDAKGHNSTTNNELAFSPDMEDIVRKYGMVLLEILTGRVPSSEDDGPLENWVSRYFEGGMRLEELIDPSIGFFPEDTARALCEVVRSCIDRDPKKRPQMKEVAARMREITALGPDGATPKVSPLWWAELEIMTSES

[3] = molecular target: T3, ZmDRIK1-R187-P492 (Zea mays, UniProt C0P4K9); settings: read-out: dTm B, DSF, Boltzmann fit, 0.1% DMSO
T3 construct: kinase domain, R187-P492
T3 sequence (C0P4K9 1-514): T2 sequence (C0P4K9 1-514)

[4] = molecular target: T4, ZmDRIK1-K217-S514 (Zea mays, UniProt C0P4K9); settings: read-out: dTm B, sheet ZmDRIK1-K217-S514;; DSF, Boltzmann fit, 0.1% DMSO
T4 construct: kinase domain, K217-S514
T4 sequence (C0P4K9 1-514): T2 sequence (C0P4K9 1-514)

ΔTm at 10 µM [1] [°C] | ΔTm at 10 µM [2] [°C] | ΔTm at 10 µM [3] [°C] | ΔTm at 10 µM [4] [°C] | SMILES
-0.523 | -1.15 | -0.325 | -0.48 | NC1(Cc2ccc(Cl)cc2)CCN(c2ncnc3[nH]ccc23)CC1 [CCT128930]
-1.56 | -0.83 | -0.353 | -0.39 | CN(C)c1ccc(-c2nc3ncc(Cl)c(N4CCN(CC(=O)Nc5nccs5)CC4)c3[nH]2)cc1 [CCT129202]
-1.09 | -0.814 | -0.157 | -0.286 | Cc1cc(CN2CCN(c3c(Br)cnc4nc(-c5ccc(N6CCN(C)CC6)cc5)[nH]c34)CC2)no1 [CCT137690]
-0.0221 | -0.207 | -0.956 | -0.917 | COc1cc2ncnc(Oc3cccc(NC(=O)Nc4cc(C(C)(C)C(F)(F)F)on4)c3)c2cc1OC [CEP-32496]
-0.54 | -0.95 | -0.284 | -0.33 | CN1CCN(c2cccc(Nc3nc4c(-c5ccc(S(C)(=O)=O)cc5)cccn4n3)c2)CC1 [CEP-33779]
-1.61 | -1.51 | -0.389 | -0.561 | Cc1c(NC(=O)c2ccc(C(C)(C)C)cc2)cccc1-c1cn(C)c(=O)c(Nc2ccc(C(=O)N3CCOCC3)cc2)n1 [CGI1746]
0.221 | -1.46 | 0.467 | 0.146 | O=C(NC(NC(=S)Nc1ccc(F)c([N+](=O)[O-])c1)C(Cl)(Cl)Cl)C(c1ccccc1)c1ccccc1 (stereo not drawn) [CGK 733]
-0.711 | -0.608 | -0.223 | -0.324 | CS(=O)(=O)N1CCc2c(-c3cnc(N)nc3)nc(N3CCOCC3)nc21 [CH5132799]
-0.639 | -0.928 | -0.404 | -0.494 | Cc1cnc(-c2cnc(NCCNc3ccc(C#N)cn3)nc2-c2ccc(Cl)cc2Cl)[nH]1 [CHIR-99021 (CT99021) HCl]
-10.9 | -0.472 | -1.55 | -0.729 | C=CC(=O)Nc1cccc(Nc2nc(Nc3ccc(Oc4ccnc(C(=O)NC)c4)cc3)ncc2F)c1 [CNX-774]
-0.903 | -1.15 | -0.528 | -0.646 | C=CC(=O)Nc1cccc(Nc2nc(Nc3ccc(NC4CN(CCF)C4)cc3OC)ncc2C(F)(F)F)c1 [CNX-2006]
-0.884 | -0.85 | -0.278 | -0.448 | C=CC(=O)Nc1cccc(Nc2nc(Nc3ccc(N4CCN(C(C)=O)CC4)cc3OC)ncc2C(F)(F)F)c1 [CO-1686 (AVL-301)]
-0.398 | 0.203 | -0.00299 | 0.216 | COCCOc1ccc2c(c1)ncn2-c1ccc2cccc(N3CCC(N)CC3)c2n1 [CP-673451]
-0.904 | -1.14 | -0.193 | -0.357 | COCC(=O)NC/C=C/c1ccc2ncnc(Nc3ccc(Oc4ccc(C)nc4)c(C)c3)c2c1 [CP-724714]
-0.684 | -1.03 | -0.186 | -0.263 | C#Cc1cccc(Nc2ncnc3cc(OC)c(OCCCCCCC(=O)NO)cc23)c1 [CUDC-101]
-0.531 | -1.08 | -0.136 | -0.228 | COc1ccc(-c2nc(N3CCOCC3)c3sc(CN(C)c4ncc(C(=O)NO)cn4)cc3n2)cn1 [CUDC-907]
-1.14 | -1.21 | -0.49 | -0.341 | CN1CCCN(C(=O)c2cccc(-c3ccc(/C=C4/C(=O)Nc5ccc(Cl)cc54)o3)c2)CC1 [CX-6258 HCl]

SMILES | ΔTm at 10 µM [1] [°C] | ΔTm at 10 µM [2] [°C] | ΔTm at 10 µM [3] [°C] | ΔTm at 10 µM [4] [°C]
O=c1[nH]c2ccc(Cl)cc2c(N[C@@H]2CN3CCC2CC3)c1-c1nc2ccccc2[nH]1 [CHIR-124] | -0.602 | -0.621 | -0.356 | -0.3
